Test results from ChEMBL document CHEMBL1144750, “Scaffold oriented synthesis. Part 2: Design, synthesis and biological evaluation of pyrimido-diazepines as receptor tyrosine kinase inhibitors” (Bioorg Med Chem Lett, 2008).

Molecular target: T1, Receptor-type tyrosine-protein kinase FLT3 (Homo sapiens, UniProt P36888)
T1 sequence (P36888 whole entry): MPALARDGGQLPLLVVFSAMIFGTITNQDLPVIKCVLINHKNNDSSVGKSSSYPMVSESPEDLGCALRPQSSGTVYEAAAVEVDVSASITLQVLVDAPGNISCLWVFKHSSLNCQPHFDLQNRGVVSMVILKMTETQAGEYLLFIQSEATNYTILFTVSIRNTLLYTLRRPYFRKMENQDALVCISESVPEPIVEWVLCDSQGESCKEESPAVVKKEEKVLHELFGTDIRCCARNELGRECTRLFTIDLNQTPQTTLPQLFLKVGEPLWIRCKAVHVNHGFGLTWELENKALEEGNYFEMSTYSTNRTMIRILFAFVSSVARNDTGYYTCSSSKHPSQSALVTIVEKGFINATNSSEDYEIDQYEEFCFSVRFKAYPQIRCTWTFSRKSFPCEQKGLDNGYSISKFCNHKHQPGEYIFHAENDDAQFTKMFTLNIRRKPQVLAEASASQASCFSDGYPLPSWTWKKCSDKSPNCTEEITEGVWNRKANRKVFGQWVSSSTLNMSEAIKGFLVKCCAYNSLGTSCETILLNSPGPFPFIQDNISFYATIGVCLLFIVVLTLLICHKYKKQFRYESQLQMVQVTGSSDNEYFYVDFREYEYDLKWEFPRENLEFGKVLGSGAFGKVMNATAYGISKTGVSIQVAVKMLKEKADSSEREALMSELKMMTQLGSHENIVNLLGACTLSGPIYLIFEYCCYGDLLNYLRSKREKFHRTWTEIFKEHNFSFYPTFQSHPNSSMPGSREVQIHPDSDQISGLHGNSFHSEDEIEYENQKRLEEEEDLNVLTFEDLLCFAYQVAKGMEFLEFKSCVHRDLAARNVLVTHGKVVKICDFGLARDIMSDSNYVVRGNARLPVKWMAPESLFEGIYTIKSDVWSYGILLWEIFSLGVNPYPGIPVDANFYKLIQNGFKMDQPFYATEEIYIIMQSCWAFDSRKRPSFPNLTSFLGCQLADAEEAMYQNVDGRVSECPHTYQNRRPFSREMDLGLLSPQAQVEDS
Experiment: Inhibition of Flt3

IC50 [nM]	SMILES
9	Nc1ncnc2c1N=C(c1ccc(NC(=O)Nc3ccc(C(F)(F)F)cc3)cc1)CCN2
16	Nc1ncnc2c1N=C(c1ccc(NC(=O)Nc3ccc(Cl)c(C(F)(F)F)c3)cc1)CCN2
13	Cc1ccc(F)c(NC(=O)Nc2ccc(C3=Nc4c(N)ncnc4NCC3)cc2)c1
3	Nc1ncnc2c1N=C(c1ccc(NC(=O)Nc3cccc(C(F)(F)F)c3F)cc1)CCN2
6	Nc1ncnc2c1N=C(c1ccc(NC(=O)Nc3cccc(Cl)c3)cc1)CCN2
2	Nc1ncnc2c1N=C(c1ccc(NC(=O)Nc3cccc(C(F)(F)F)c3)cc1)CCN2
2860	Nc1nc(N)c2c(n1)NCCC(c1ccc(NC(=O)Nc3ccccc3)cc1)=N2
2700	Nc1ncnc2c1N=C(c1cccc(NC(=O)Nc3ccccc3)c1)CCN2
7	Nc1ncnc2c1N=C(c1ccc(NC(=O)Nc3ccc(F)c(C(F)(F)F)c3)cc1)CCN2

Molecular target: Vascular endothelial growth factor receptor 2 (Mus musculus, UniProt P35918)
Sequence (P35918 whole entry): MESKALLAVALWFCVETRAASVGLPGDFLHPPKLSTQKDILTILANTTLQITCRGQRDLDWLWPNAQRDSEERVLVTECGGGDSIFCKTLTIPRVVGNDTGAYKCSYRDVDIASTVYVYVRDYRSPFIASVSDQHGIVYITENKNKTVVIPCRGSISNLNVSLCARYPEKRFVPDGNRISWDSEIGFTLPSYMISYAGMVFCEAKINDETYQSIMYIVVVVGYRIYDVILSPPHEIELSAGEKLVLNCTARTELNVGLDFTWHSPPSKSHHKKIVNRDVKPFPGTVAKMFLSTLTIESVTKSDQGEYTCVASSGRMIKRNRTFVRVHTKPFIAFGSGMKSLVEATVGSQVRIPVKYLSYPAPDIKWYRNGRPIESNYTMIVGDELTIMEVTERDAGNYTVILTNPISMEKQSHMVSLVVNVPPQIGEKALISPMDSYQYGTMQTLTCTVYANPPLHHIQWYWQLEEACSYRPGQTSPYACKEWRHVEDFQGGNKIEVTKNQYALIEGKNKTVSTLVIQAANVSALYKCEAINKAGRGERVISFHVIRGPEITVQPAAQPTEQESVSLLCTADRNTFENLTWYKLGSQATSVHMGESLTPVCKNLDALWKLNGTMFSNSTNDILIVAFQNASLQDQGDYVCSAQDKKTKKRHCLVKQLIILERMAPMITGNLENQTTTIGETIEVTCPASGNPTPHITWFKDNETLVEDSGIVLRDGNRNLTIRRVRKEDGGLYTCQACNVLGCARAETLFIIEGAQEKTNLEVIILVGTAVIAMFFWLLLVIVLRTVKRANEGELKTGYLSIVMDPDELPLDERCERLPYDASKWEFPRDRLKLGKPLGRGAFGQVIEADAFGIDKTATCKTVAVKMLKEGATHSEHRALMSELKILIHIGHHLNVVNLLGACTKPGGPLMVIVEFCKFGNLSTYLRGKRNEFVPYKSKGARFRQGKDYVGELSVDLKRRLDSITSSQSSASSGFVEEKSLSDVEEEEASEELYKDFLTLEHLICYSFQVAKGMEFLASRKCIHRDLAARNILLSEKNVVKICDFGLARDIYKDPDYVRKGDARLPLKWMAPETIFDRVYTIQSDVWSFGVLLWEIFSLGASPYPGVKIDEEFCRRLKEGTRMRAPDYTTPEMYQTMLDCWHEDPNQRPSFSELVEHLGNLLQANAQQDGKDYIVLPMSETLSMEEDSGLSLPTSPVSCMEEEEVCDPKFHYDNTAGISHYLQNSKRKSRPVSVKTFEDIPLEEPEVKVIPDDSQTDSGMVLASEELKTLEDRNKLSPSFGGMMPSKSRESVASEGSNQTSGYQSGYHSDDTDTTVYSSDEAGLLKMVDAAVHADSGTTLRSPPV
Experiment: Inhibition of VEGF-induced KDR phosphorylation in mouse 3T3 cells
Format: cell-based, NIH3T3

SMILES	IC50 [nM]
Nc1ncnc2c1N=C(c1ccc(NC(=O)Nc3cc(C(F)(F)F)ccc3F)cc1)CCN2	121
Cc1ccc(C2=Nc3c(N)ncnc3NCC2)cc1NC(=O)Nc1cccc(C(F)(F)F)c1	52
Nc1ncnc2c1N=C(c1cccc(NC(=O)Nc3cccc(C(F)(F)F)c3)c1)CCN2	790

Other lines, results leading:

IC50 [nM]	SMILES
2440	Nc1ncnc2c1N=C(c1ccc(NC(=O)Nc3ccc(C(F)(F)F)cc3)cc1)CCN2
49	Nc1ncnc2c1N=C(c1ccc(NC(=O)Nc3ccc(Cl)c(C(F)(F)F)c3)cc1)CCN2
311	Cc1ccc(F)c(NC(=O)Nc2ccc(C3=Nc4c(N)ncnc4NCC3)cc2)c1
1520	Nc1ncnc2c1N=C(c1ccc(NC(=O)Nc3cccc(C(F)(F)F)c3F)cc1)CCN2
50	Nc1ncnc2c1N=C(c1ccc(NC(=O)Nc3cccc(Cl)c3)cc1)CCN2
13	Nc1ncnc2c1N=C(c1ccc(NC(=O)Nc3cccc(C(F)(F)F)c3)cc1)CCN2
345	Nc1ncnc2c1N=C(c1ccc(NC(=O)Nc3ccc(F)c(C(F)(F)F)c3)cc1)CCN2

Molecular target: T2, Vascular endothelial growth factor receptor 2 (Homo sapiens, UniProt P35968)
T2 sequence (P35968 whole entry): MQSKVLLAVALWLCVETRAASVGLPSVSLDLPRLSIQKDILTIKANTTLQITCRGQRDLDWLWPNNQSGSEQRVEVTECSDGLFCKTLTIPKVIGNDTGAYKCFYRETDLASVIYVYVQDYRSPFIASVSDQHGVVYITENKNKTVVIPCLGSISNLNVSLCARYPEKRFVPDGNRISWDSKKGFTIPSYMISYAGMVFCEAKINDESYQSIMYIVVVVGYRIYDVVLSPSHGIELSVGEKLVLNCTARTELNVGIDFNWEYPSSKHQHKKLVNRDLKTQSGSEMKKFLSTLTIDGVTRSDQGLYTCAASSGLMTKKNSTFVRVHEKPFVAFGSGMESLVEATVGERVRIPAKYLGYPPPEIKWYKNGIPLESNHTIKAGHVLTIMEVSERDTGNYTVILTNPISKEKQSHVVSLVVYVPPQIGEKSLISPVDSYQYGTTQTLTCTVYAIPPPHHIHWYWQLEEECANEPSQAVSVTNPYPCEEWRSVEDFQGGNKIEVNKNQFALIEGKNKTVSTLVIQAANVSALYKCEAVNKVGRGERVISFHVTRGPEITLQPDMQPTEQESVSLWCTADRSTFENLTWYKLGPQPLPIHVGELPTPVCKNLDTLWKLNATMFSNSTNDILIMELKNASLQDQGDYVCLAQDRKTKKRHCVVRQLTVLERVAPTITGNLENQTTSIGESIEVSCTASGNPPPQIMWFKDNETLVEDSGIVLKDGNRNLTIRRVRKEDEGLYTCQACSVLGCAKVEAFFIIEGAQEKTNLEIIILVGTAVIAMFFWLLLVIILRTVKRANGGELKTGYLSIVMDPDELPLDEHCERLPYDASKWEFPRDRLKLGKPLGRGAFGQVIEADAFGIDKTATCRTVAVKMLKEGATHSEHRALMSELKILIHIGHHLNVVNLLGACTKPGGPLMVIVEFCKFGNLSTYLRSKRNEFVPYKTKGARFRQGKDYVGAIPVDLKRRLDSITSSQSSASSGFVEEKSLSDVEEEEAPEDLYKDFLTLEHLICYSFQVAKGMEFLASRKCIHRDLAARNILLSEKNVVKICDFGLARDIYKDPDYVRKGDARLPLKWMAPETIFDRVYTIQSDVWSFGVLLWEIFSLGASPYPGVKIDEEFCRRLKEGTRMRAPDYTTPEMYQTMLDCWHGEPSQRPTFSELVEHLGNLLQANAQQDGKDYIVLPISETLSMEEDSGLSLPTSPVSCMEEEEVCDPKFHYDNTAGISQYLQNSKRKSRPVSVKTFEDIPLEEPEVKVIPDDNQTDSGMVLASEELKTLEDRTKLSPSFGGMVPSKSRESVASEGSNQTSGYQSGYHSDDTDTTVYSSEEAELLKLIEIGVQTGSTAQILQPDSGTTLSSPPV
Experiment: Inhibition of KDR in presence of 1 mM ATP

IC50 [nM]	SMILES
110	Nc1ncnc2c1N=C(c1ccc(NC(=O)Nc3ccc(C(F)(F)F)cc3)cc1)CCN2
6	Nc1ncnc2c1N=C(c1ccc(NC(=O)Nc3ccc(Cl)c(C(F)(F)F)c3)cc1)CCN2
65	Cc1ccc(F)c(NC(=O)Nc2ccc(C3=Nc4c(N)ncnc4NCC3)cc2)c1
49	Nc1ncnc2c1N=C(c1ccc(NC(=O)Nc3cccc(C(F)(F)F)c3F)cc1)CCN2
4	Nc1ncnc2c1N=C(c1ccc(NC(=O)Nc3cc(C(F)(F)F)ccc3F)cc1)CCN2
951	Nc1ncnc2c1N=C(c1ccc(NC(=O)Nc3ccccc3)cc1)CCN2
19	Nc1ncnc2c1N=C(c1ccc(NC(=O)Nc3cccc(Cl)c3)cc1)CCN2
3	Nc1ncnc2c1N=C(c1ccc(NC(=O)Nc3cccc(C(F)(F)F)c3)cc1)CCN2
2860	Nc1nc(N)c2c(n1)NCCC(c1ccc(NC(=O)Nc3ccccc3)cc1)=N2
888	Nc1ncnc2c1N=C(c1cccc(NC(=O)Nc3ccccc3)c1)CCN2
5	Nc1ncnc2c1N=C(c1ccc(NC(=O)Nc3ccc(F)c(C(F)(F)F)c3)cc1)CCN2

Molecular target: T2, Vascular endothelial growth factor receptor 2
Experiment: Inhibition of KDR in presence of 10 uM ATP

IC50 [nM]	SMILES
3000	Cc1cccc(C2=Nc3c(N)ncnc3NCC2)c1
3000	Nc1ncnc2c1N=C(c1ccc(Cl)cc1)CCN2
4000	Cc1ccc(C2=Nc3c(N)ncnc3NCC2)cc1
35000	Nc1nc(N)c2c(n1)NCCC(c1ccccc1)=N2
600	Nc1ncnc2c1N=C(c1cccc(Cl)c1)CCN2
3000	Nc1ncnc2c1N=C(c1ccccc1)CCN2
9000	Nc1nc(N)c2c(n1)NCCC(c1ccc(Cl)cc1)=N2
21000	Nc1nc(N)c2c(n1)NCCC(c1cccc(Cl)c1)=N2

Molecular target: Serine/threonine-protein kinase PAK 4 (Homo sapiens, UniProt O96013)
Sequence (O96013 whole entry): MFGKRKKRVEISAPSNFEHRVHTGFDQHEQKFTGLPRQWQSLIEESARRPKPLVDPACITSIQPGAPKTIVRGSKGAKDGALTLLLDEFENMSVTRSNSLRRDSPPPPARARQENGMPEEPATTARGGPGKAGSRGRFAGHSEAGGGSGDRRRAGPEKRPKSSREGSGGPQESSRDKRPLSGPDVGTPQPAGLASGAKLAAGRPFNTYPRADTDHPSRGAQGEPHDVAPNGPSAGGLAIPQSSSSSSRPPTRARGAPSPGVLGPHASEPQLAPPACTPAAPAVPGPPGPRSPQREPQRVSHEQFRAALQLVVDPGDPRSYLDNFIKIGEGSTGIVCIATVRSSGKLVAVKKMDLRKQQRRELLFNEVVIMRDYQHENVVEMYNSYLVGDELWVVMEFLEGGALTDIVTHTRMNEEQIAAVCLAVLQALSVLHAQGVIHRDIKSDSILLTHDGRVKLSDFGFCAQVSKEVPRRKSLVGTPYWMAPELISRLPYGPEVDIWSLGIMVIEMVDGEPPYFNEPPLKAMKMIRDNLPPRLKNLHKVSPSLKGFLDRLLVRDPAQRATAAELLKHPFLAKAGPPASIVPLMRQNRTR
Experiment: Inhibition of Pak4

IC50 [nM]	SMILES
> 100000	Cc1cccc(C2=Nc3c(N)ncnc3NCC2)c1
> 100000	Nc1ncnc2c1N=C(c1ccc(Cl)cc1)CCN2
> 100000	Cc1ccc(C2=Nc3c(N)ncnc3NCC2)cc1
> 100000	Nc1nc(N)c2c(n1)NCCC(c1ccccc1)=N2
> 100000	Nc1ncnc2c1N=C(c1cccc(Cl)c1)CCN2
> 100000	Nc1ncnc2c1N=C(c1ccccc1)CCN2
> 100000	Nc1nc(N)c2c(n1)NCCC(c1ccc(Cl)cc1)=N2
> 100000	Nc1nc(N)c2c(n1)NCCC(c1cccc(Cl)c1)=N2

Molecular target: Serine/threonine-protein kinase PLK1 (Homo sapiens, UniProt P53350)
Experiment: Inhibition of Plk1

IC50 [nM]	SMILES
50000	Cc1cccc(C2=Nc3c(N)ncnc3NCC2)c1
> 100000	Nc1ncnc2c1N=C(c1ccc(Cl)cc1)CCN2
> 100000	Cc1ccc(C2=Nc3c(N)ncnc3NCC2)cc1
> 100000	Nc1nc(N)c2c(n1)NCCC(c1ccccc1)=N2
> 100000	Nc1ncnc2c1N=C(c1cccc(Cl)c1)CCN2
> 100000	Nc1ncnc2c1N=C(c1ccccc1)CCN2
> 100000	Nc1nc(N)c2c(n1)NCCC(c1ccc(Cl)cc1)=N2
> 100000	Nc1nc(N)c2c(n1)NCCC(c1cccc(Cl)c1)=N2

System: not listed separately
Experiment: Inhibition of CK2

IC50 [nM]	SMILES
12000	Cc1cccc(C2=Nc3c(N)ncnc3NCC2)c1
> 100000	Nc1ncnc2c1N=C(c1ccc(Cl)cc1)CCN2
> 100000	Cc1ccc(C2=Nc3c(N)ncnc3NCC2)cc1
> 100000	Nc1nc(N)c2c(n1)NCCC(c1ccccc1)=N2
4000	Nc1ncnc2c1N=C(c1ccccc1)CCN2
> 100000	Nc1nc(N)c2c(n1)NCCC(c1ccc(Cl)cc1)=N2

Molecular target: RAC-alpha serine/threonine-protein kinase (Homo sapiens, UniProt P31749)
Sequence (P31749 whole entry): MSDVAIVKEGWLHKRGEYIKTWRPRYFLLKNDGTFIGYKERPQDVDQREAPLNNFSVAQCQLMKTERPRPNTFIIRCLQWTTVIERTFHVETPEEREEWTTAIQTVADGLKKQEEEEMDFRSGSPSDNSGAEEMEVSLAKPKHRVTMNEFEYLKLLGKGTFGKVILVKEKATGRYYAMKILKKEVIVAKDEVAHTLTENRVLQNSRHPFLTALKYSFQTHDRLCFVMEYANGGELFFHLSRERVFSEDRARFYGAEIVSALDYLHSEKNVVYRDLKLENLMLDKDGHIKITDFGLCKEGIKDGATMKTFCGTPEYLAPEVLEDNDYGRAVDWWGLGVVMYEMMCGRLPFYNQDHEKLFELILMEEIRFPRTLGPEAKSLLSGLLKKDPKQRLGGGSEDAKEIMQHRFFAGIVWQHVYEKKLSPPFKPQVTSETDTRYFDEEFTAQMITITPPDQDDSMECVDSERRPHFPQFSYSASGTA
Experiment: Inhibition of Akt1

IC50 [nM]	SMILES
> 100000	Cc1cccc(C2=Nc3c(N)ncnc3NCC2)c1
> 100000	Nc1ncnc2c1N=C(c1ccc(Cl)cc1)CCN2
> 100000	Cc1ccc(C2=Nc3c(N)ncnc3NCC2)cc1
> 100000	Nc1nc(N)c2c(n1)NCCC(c1ccccc1)=N2
> 100000	Nc1ncnc2c1N=C(c1cccc(Cl)c1)CCN2
92000	Nc1ncnc2c1N=C(c1ccccc1)CCN2
> 100000	Nc1nc(N)c2c(n1)NCCC(c1ccc(Cl)cc1)=N2
> 100000	Nc1nc(N)c2c(n1)NCCC(c1cccc(Cl)c1)=N2

System: not listed separately
Experiment: Inhibition of CK2 at 100 uM

inhibition [%]	SMILES
64	Nc1ncnc2c1N=C(c1cccc(Cl)c1)CCN2

Molecular target: Mast/stem cell growth factor receptor Kit (Homo sapiens, UniProt P10721)
Sequence (P10721 whole entry): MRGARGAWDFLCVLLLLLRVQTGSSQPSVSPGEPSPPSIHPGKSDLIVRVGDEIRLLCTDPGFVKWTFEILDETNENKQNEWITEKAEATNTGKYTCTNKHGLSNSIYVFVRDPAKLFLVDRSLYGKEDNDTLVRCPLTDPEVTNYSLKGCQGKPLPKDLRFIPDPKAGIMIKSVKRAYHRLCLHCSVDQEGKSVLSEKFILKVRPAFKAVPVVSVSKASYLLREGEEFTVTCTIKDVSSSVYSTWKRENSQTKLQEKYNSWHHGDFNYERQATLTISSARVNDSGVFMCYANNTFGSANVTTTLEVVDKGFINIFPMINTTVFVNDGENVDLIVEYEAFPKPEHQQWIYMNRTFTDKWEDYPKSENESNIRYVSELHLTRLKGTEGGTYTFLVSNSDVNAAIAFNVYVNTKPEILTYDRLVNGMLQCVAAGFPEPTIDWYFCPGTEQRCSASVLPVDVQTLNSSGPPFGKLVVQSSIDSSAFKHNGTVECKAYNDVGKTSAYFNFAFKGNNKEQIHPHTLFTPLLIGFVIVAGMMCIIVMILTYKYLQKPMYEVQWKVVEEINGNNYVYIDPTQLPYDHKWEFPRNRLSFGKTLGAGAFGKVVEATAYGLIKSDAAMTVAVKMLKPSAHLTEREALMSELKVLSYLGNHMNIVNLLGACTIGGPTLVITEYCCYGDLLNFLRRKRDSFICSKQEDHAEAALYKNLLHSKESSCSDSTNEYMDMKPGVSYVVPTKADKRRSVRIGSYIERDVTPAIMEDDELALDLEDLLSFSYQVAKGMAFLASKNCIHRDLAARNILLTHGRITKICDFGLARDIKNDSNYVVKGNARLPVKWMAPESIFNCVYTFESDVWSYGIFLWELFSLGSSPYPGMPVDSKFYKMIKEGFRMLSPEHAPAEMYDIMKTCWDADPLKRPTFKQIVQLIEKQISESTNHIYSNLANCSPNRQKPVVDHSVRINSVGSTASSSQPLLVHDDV
Experiment: Inhibition of cKit

SMILES	IC50 [nM]
Cc1ccc(C2=Nc3c(N)ncnc3NCC2)cc1NC(=O)Nc1cccc(C(F)(F)F)c1	12
Nc1ncnc2c1N=C(c1cccc(NC(=O)Nc3cccc(C(F)(F)F)c3)c1)CCN2	91

Continued, values first:

IC50 [nM]	SMILES
35	Nc1ncnc2c1N=C(c1ccc(NC(=O)Nc3ccc(C(F)(F)F)cc3)cc1)CCN2
50	Nc1ncnc2c1N=C(c1ccc(NC(=O)Nc3ccc(Cl)c(C(F)(F)F)c3)cc1)CCN2
37	Cc1ccc(F)c(NC(=O)Nc2ccc(C3=Nc4c(N)ncnc4NCC3)cc2)c1
28	Nc1ncnc2c1N=C(c1ccc(NC(=O)Nc3cccc(C(F)(F)F)c3F)cc1)CCN2
18	Nc1ncnc2c1N=C(c1ccc(NC(=O)Nc3cccc(Cl)c3)cc1)CCN2
> 13000	Nc1nc(N)c2c(n1)NCCC(c1ccc(NC(=O)Nc3ccccc3)cc1)=N2
3020	Nc1ncnc2c1N=C(c1cccc(NC(=O)Nc3ccccc3)c1)CCN2
22	Nc1ncnc2c1N=C(c1ccc(NC(=O)Nc3ccc(F)c(C(F)(F)F)c3)cc1)CCN2
